{"source": "paper PMC5218480", "about": "(PLoS ONE, 2017)", "system": "MV-4-11 cells", "assay": "Gene expression microarray analysis (Affymetrix PrimeView) and GSEA", "format": "cell-based, human", "set-up": "RFU PODN (11730768_x_at) / Fold change /veh PODN (11730768_x_at) / RFU LINC00158 (11744669_a_at) / Fold change /veh LINC00158 (11744669_a_at) / RFU DUSP10 (11751237_a_at) / Fold change /veh DUSP10 (11751237_a_at) / RFU ID3 (11757404_x_at) / Fold change /veh ID3 (11757404_x_at) / RFU PLEKHG5 (11737974_s_at) / Fold change /veh PLEKHG5 (11737974_s_at) / RFU LRRC4B (11730491_at) / Fold change /veh LRRC4B (11730491_at) / RFU GIMAP4 (11747438_a_at) / Fold change /veh GIMAP4 (11747438_a_at) / RFU KRT8 (11758183_x_at) / Fold change /veh KRT8 (11758183_x_at) / RFU CNN1 (11734310_a_at) / Fold change /veh CNN1 (11734310_a_at) / RFU VPS37D (11726825_at) / Fold change /veh VPS37D (11726825_at) / RFU C10orf10 (11716522_x_at) / Fold change /veh C10orf10 (11716522_x_at) / RFU KIR2DL2 /// KIR2DL4 /// KIR2DL5A /// KIR2DL5B /// KIR2DS1 /// KIR2DS2 /// KIR2DS3 /// KIR2DS4 /// KIR3DL3 /// KIR3DL3 /// KIR3DS1 (11738374_at) / Fold change /veh KIR2DL2 /// KIR2DL4 /// KIR2DL5A /// KIR2DL5B /// KIR2DS1 /// KIR2DS2 /// KIR2DS3 /// KIR2DS4 /// KIR3DL3 /// KIR3DL3 /// KIR3DS1 (11738374_at) / RFU C1QL1 (11718748_at) / Fold change /veh C1QL1 (11718748_at) / RFU TMPRSS4 (11747572_a_at) / Fold change /veh TMPRSS4 (11747572_a_at) / RFU HAMP (11756126_x_at) / Fold change /veh HAMP (11756126_x_at) / RFU RNFT2 (11725882_a_at) / Fold change /veh RNFT2 (11725882_a_at) / RFU NR4A2 (11747474_a_at) / Fold change /veh NR4A2 (11747474_a_at) / RFU ABCC12 (11746883_a_at) / Fold change /veh ABCC12 (11746883_a_at) / RFU TMEM136 (11760407_x_at) / Fold change /veh TMEM136 (11760407_x_at) / RFU CLDN22 /// WWC2 (11732394_at) / Fold change /veh CLDN22 /// WWC2 (11732394_at) / RFU HLA-DPB1 (11760878_x_at) / Fold change /veh HLA-DPB1 (11760878_x_at) / RFU SPINT1 (11716480_a_at) / Fold change /veh SPINT1 (11716480_a_at) / RFU GAP43 (11754022_s_at) / Fold change /veh GAP43 (11754022_s_at) / RFU A4GNT (11735810_at) / Fold change /veh A4GNT (11735810_at) / RFU PRB3 (11715151_x_at) / Fold change /veh PRB3 (11715151_x_at) / RFU TUBB4B (11761932_at) / Fold change /veh TUBB4B (11761932_at) / RFU CAPN14 (11732068_a_at) / Fold change /veh CAPN14 (11732068_a_at) / RFU TMCC2 (11721928_a_at) / Fold change /veh TMCC2 (11721928_a_at) / RFU IRGQ (11745062_a_at) / Fold change /veh IRGQ (11745062_a_at) / RFU FAM174B (11720279_a_at) / Fold change /veh FAM174B (11720279_a_at) / RFU TMPRSS4 (11748680_a_at) / Fold change /veh TMPRSS4 (11748680_a_at) / RFU FAM212B (11763350_a_at) / Fold change /veh FAM212B (11763350_a_at) / RFU PLEKHG5 (11743358_a_at) / Fold change /veh PLEKHG5 (11743358_a_at) / RFU ZSCAN30 (11745921_a_at) / Fold change /veh ZSCAN30 (11745921_a_at) / RFU CMKLR1 (11741424_a_at) / Fold change /veh CMKLR1 (11741424_a_at) / RFU LOC101060620 /// MAPK8IP1 (11723275_at) / Fold change /veh LOC101060620 /// MAPK8IP1 (11723275_at) / RFU SPTSSB (11747773_x_at) / Fold change /veh SPTSSB (11747773_x_at) / RFU PRSS12 (11739890_at) / Fold change /veh PRSS12 (11739890_at) / RFU BIN1 (11741810_x_at) / Fold change /veh BIN1 (11741810_x_at) / RFU WNT11 (11732464_a_at) / Fold change /veh WNT11 (11732464_a_at) / RFU C10orf10 (11716521_a_at) / Fold change /veh C10orf10 (11716521_a_at) / RFU C5orf56 (11738089_at) / Fold change /veh C5orf56 (11738089_at) / RFU CYB561 (11721691_x_at) / Fold change /veh CYB561 (11721691_x_at) / RFU ANKRD19P (11752326_a_at) / Fold change /veh ANKRD19P (11752326_a_at) / RFU OR2T12 /// OR2T33 /// OR2T8 (11738714_s_at) / Fold change /veh OR2T12 /// OR2T33 /// OR2T8 (11738714_s_at) / RFU VCAN (11748164_a_at) / Fold change /veh VCAN (11748164_a_at) / RFU JSRP1 (11732532_at) / Fold change /veh JSRP1 (11732532_at) / RFU KRTAP10-11 (11738290_x_at) / Fold change /veh KRTAP10-11 (11738290_x_at) / RFU MYO3A (11730013_a_at) / Fold change /veh MYO3A (11730013_a_at) / RFU EBF3 (11725865_a_at) / Fold change /veh EBF3 (11725865_a_at) / RFU CAMK2N1 (11719241_x_at) / Fold change /veh CAMK2N1 (11719241_x_at) / RFU C5orf56 (11738088_a_at) / Fold change /veh C5orf56 (11738088_a_at) / RFU OLFML3 (11715873_a_at) / Fold change /veh OLFML3 (11715873_a_at) / RFU LOC100653217 /// NTM (11731650_a_at) / Fold change /veh LOC100653217 /// NTM (11731650_a_at) / RFU MAPK11 (11762145_a_at) / Fold change /veh MAPK11 (11762145_a_at) / RFU FIZ1 (11724087_x_at) / Fold change /veh FIZ1 (11724087_x_at) / RFU OASL (11726364_x_at) / Fold change /veh OASL (11726364_x_at) / RFU SOX15 (11748057_x_at) / Fold change /veh SOX15 (11748057_x_at) / RFU CD79A (11719716_a_at) / Fold change /veh CD79A (11719716_a_at) / RFU HIST1H1D (11736915_at) / Fold change /veh HIST1H1D (11736915_at) / RFU CASKIN2 (11723855_a_at) / Fold change /veh CASKIN2 (11723855_a_at) / RFU LOC730098 (11760151_x_at) / Fold change /veh LOC730098 (11760151_x_at) / RFU OR4N2 (11742367_at) / Fold change /veh OR4N2 (11742367_at) / RFU PRRT2 (11749266_a_at) / Fold change /veh PRRT2 (11749266_a_at) / RFU SNX32 (11753110_a_at) / Fold change /veh SNX32 (11753110_a_at) / RFU CDHR5 (11726645_a_at) / Fold change /veh CDHR5 (11726645_a_at) / RFU RCAN1 (11760418_a_at) / Fold change /veh RCAN1 (11760418_a_at) / RFU FAM167A (11723789_a_at) / Fold change /veh FAM167A (11723789_a_at) / RFU FAM26E (11764081_at) / Fold change /veh FAM26E (11764081_at) / RFU ISYNA1 (11749810_s_at) / Fold change /veh ISYNA1 (11749810_s_at) / RFU ACY1 (11761880_at) / Fold change /veh ACY1 (11761880_at) / RFU 11764098_at / Fold change /veh 11764098_at / RFU SAMD14 (11745864_x_at) / Fold change /veh SAMD14 (11745864_x_at) / RFU NPB (11741838_a_at) / Fold change /veh NPB (11741838_a_at) / RFU TMPRSS6 (11731388_a_at) / Fold change /veh TMPRSS6 (11731388_a_at) / RFU KRTAP10-2 (11738614_at) / Fold change /veh KRTAP10-2 (11738614_at) / RFU ARHGAP8 /// PRR5-ARHGAP8 (11727945_x_at) / Fold change /veh ARHGAP8 /// PRR5-ARHGAP8 (11727945_x_at) / RFU KRTAP5-7 /// NADSYN1 (11734609_at) / Fold change /veh KRTAP5-7 /// NADSYN1 (11734609_at) / RFU RASL12 (11751679_a_at) / Fold change /veh RASL12 (11751679_a_at) / RFU CDKN2B (11736163_a_at) / Fold change /veh CDKN2B (11736163_a_at) / RFU PRF1 (11729649_at) / Fold change /veh PRF1 (11729649_at) / RFU, ZNF638 /// ZNF638-IT1 / Fold change vs veh, ZNF638 /// ZNF638-IT1 / RFU, PANK3 / Fold change vs veh, PANK3 / RFU, SH3YL1 / Fold change vs veh, SH3YL1 / RFU, ZEB2 / Fold change vs veh, ZEB2 / RFU, NRIP1 / Fold change vs veh, NRIP1 / RFU, PTTG1IP / Fold change vs veh, PTTG1IP / RFU, CAPN2 / Fold change vs veh, CAPN2 / RFU, MED14 / Fold change vs veh, MED14 / RFU, SNORA58 / Fold change vs veh, SNORA58 / RFU, C1orf63 / Fold change vs veh, C1orf63 / RFU, LRRFIP1 / Fold change vs veh, LRRFIP1 / RFU, NDUFAF7 / Fold change vs veh, NDUFAF7 / RFU, SLC12A2 / Fold change vs veh, SLC12A2 / RFU, IBTK / Fold change vs veh, IBTK / RFU, ESF1 / Fold change vs veh, ESF1 / Fold change vs veh, TMEM50B / RFU, TAOK1 / Fold change vs veh, TAOK1 / RFU, ACBD3 / Fold change vs veh, ACBD3 / RFU, TMA16 / Fold change vs veh, TMA16 / RFU, RWDD3 / Fold change vs veh, RWDD3 / RFU, BCAT1 / Fold change vs veh, BCAT1 / RFU, EDEM3 / Fold change vs veh, EDEM3 / RFU, TMEM33 / Fold change vs veh, TMEM33 / RFU, WDR75 / Fold change vs veh, WDR75 / RFU, AHCTF1 / Fold change vs veh, AHCTF1 / RFU, TFRC / Fold change vs veh, TFRC / RFU, ZDHHC17 / Fold change vs veh, ZDHHC17 / RFU, NOM1 / Fold change vs veh, NOM1 / RFU, ARL8B / Fold change vs veh, ARL8B / RFU, ZBTB11 / Fold change vs veh, ZBTB11 / RFU, TAMM41 / Fold change vs veh, TAMM41 / RFU, KIAA1704 /// LOC100996395 / Fold change vs veh, KIAA1704 /// LOC100996395 / RFU, ING1 / Fold change vs veh, ING1 / RFU, TRMT61B / Fold change vs veh, TRMT61B / RFU, FUBP3 / Fold change vs veh, FUBP3 / RFU, TP53 / Fold change vs veh, TP53 / RFU, TNKS2 / Fold change vs veh, TNKS2 / RFU, ZFP14 / Fold change vs veh, ZFP14 / RFU, ACTR2 / Fold change vs veh, ACTR2 / RFU, PPP3R1 / Fold change vs veh, PPP3R1 / RFU, PIK3R1 / Fold change vs veh, PIK3R1 / RFU, HNRNPA1 / Fold change vs veh, HNRNPA1 / RFU, RNF170 / Fold change vs veh, RNF170 / RFU, ZNF28 / Fold change vs veh, ZNF28 / RFU, RNGTT / Fold change vs veh, RNGTT / RFU, OGT / Fold change vs veh, OGT / RFU, BRD1 / Fold change vs veh, BRD1 / RFU, MARS / Fold change vs veh, MARS / RFU, ZNF655 / Fold change vs veh, ZNF655 / RFU, FAHD1 / Fold change vs veh, FAHD1 / RFU, BDP1 / Fold change vs veh, BDP1 / RFU, LRRCC1 / Fold change vs veh, LRRCC1 / RFU, ARID1A / Fold change vs veh, ARID1A / RFU, ZNF146 / Fold change vs veh, ZNF146 / RFU, ZNF330 / Fold change vs veh, ZNF330 / RFU, GPN3 / Fold change vs veh, GPN3 / RFU, C9orf123 / Fold change vs veh, C9orf123 / RFU, N4BP2L2 / Fold change vs veh, N4BP2L2 / RFU, ARFIP1 / Fold change vs veh, ARFIP1 / RFU, FAM179B / Fold change vs veh, FAM179B / RFU, BCL10 / Fold change vs veh, BCL10 / RFU, UHRF1BP1L / Fold change vs veh, UHRF1BP1L / RFU, BET1 / Fold change vs veh, BET1 / RFU, CNOT2 / Fold change vs veh, CNOT2 / RFU, ZNF268 / Fold change vs veh, ZNF268 / Fold change vs veh, ZNF507 / RFU, DGCR2 / Fold change vs veh, DGCR2 / RFU, WDSUB1 / Fold change vs veh, WDSUB1 / Fold change vs veh, HSP90B1 /// MIR3652 / RFU, ADSS / Fold change vs veh, ADSS / RFU, GK / Fold change vs veh, GK / RFU, ZNF148 / Fold change vs veh, ZNF148 / RFU, TAF9 / Fold change vs veh, TAF9 / RFU, SLC1A5 / Fold change vs veh, SLC1A5 / RFU, SLMO2 / Fold change vs veh, SLMO2 / RFU, ABCC4 / Fold change vs veh, ABCC4 / RFU, LOC101060439 /// RAP1B / Fold change vs veh, LOC101060439 /// RAP1B / RFU, RFX7 / Fold change vs veh, RFX7 / RFU, GTPBP10 / Fold change vs veh, GTPBP10 / RFU, CNEP1R1 / Fold change vs veh, CNEP1R1 / RFU, BIVM-ERCC5 /// ERCC5 / Fold change vs veh, BIVM-ERCC5 /// ERCC5 / RFU, ILF3 / Fold change vs veh, ILF3 / RFU 11762660_at / Fold change /veh 11762660_at / RFU VCAN (11757783_s_at) / Fold change /veh VCAN (11757783_s_at) / RFU DDX43 (11728927_at) / Fold change /veh DDX43 (11728927_at) / RFU KRT8 (11758188_x_at) / Fold change /veh KRT8 (11758188_x_at) / RFU NKD1 (11759106_at) / Fold change /veh NKD1 (11759106_at) / RFU SRD5A1 (11742802_a_at) / Fold change /veh SRD5A1 (11742802_a_at) / RFU TPSAB1 /// TPSB2 (11721975_s_at) / Fold change /veh TPSAB1 /// TPSB2 (11721975_s_at) / RFU GSTM3 (11746129_a_at) / Fold change /veh GSTM3 (11746129_a_at) / RFU IL23R (11737362_x_at) / Fold change /veh IL23R (11737362_x_at) / RFU TMEM51 (11727254_a_at) / Fold change /veh TMEM51 (11727254_a_at) / RFU PIWIL2 (11732686_x_at) / Fold change /veh PIWIL2 (11732686_x_at) / RFU ORM1 (11744905_x_at) / Fold change /veh ORM1 (11744905_x_at) / RFU CCDC152 (11743942_at) / Fold change /veh CCDC152 (11743942_at) / RFU ECM1 (11717891_a_at) / Fold change /veh ECM1 (11717891_a_at) / RFU IL23R (11748794_a_at) / Fold change /veh IL23R (11748794_a_at) / RFU TNFAIP8L3 (11732012_x_at) / Fold change /veh TNFAIP8L3 (11732012_x_at) / RFU MBOAT4 (11741988_at) / Fold change /veh MBOAT4 (11741988_at) / RFU 11764193_at / Fold change /veh 11764193_at / RFU TMEM53 (11763286_at) / Fold change /veh TMEM53 (11763286_at) / RFU MAGEB2 (11727129_at) / Fold change /veh MAGEB2 (11727129_at) / RFU TMEM200A (11744735_a_at) / Fold change /veh TMEM200A (11744735_a_at) / RFU CCDC152 (11751479_a_at) / Fold change /veh CCDC152 (11751479_a_at) / RFU FAM211A (11726209_a_at) / Fold change /veh FAM211A (11726209_a_at) / RFU RGS16 (11746705_a_at) / Fold change /veh RGS16 (11746705_a_at) / RFU VCAN (11755009_s_at) / Fold change /veh VCAN (11755009_s_at) / RFU RHOB (11743442_s_at) / Fold change /veh RHOB (11743442_s_at) / RFU RGS16 (11720943_a_at) / Fold change /veh RGS16 (11720943_a_at) / RFU RGS16 (11720944_at) / Fold change /veh RGS16 (11720944_at) / RFU, VPS4B / Fold change vs veh, VPS4B / RFU, CREB1 / Fold change vs veh, CREB1 / RFU, DNAJC13 / Fold change vs veh, DNAJC13 / RFU, GNAQ / Fold change vs veh, GNAQ / RFU, CDK5R1 / Fold change vs veh, CDK5R1 / RFU, ZRANB3 / Fold change vs veh, ZRANB3 / RFU, CUL4A / Fold change vs veh, CUL4A / RFU, CCNY / Fold change vs veh, CCNY / RFU, UFL1 / Fold change vs veh, UFL1 / RFU, COG3 / Fold change vs veh, COG3 / RFU, DIAPH2 / Fold change vs veh, DIAPH2 / RFU, SKA2 / Fold change vs veh, SKA2 / RFU, AFF3 / Fold change vs veh, AFF3 / RFU, LMF1 / Fold change vs veh, LMF1 / RFU, IPO11 / Fold change vs veh, IPO11 / RFU, DFFB / Fold change vs veh, DFFB / RFU, FOXP1 / Fold change vs veh, FOXP1 / RFU, CARD8 / Fold change vs veh, CARD8 / RFU, STRN3 / Fold change vs veh, STRN3 / RFU, ADK / Fold change vs veh, ADK / RFU, RASSF2 / Fold change vs veh, RASSF2 / RFU, WIPF1 / Fold change vs veh, WIPF1 / RFU, LARP1B / Fold change vs veh, LARP1B / RFU, RASA1 / Fold change vs veh, RASA1 / RFU, RB1 / Fold change vs veh, RB1 / RFU, PPFIA1 / Fold change vs veh, PPFIA1 / RFU, MAT2A / Fold change vs veh, MAT2A / RFU, CCT5 / Fold change vs veh, CCT5 / RFU, WDR92 / Fold change vs veh, WDR92 / RFU, CUX1 / Fold change vs veh, CUX1 / RFU, TTC7A / Fold change vs veh, TTC7A / RFU, TMEM135 / Fold change vs veh, TMEM135 / RFU, DEPTOR / Fold change vs veh, DEPTOR / RFU, CPM / Fold change vs veh, CPM / RFU, DNAJB6 / Fold change vs veh, DNAJB6 / RFU, CACNA2D3 / Fold change vs veh, CACNA2D3 / RFU, DTX4 / Fold change vs veh, DTX4 / RFU, TFCP2 / Fold change vs veh, TFCP2 / RFU, GMCL1 /// GMCL1P1 / Fold change vs veh, GMCL1 /// GMCL1P1 / RFU, AEBP2 / Fold change vs veh, AEBP2 / RFU, SNHG1 /// SNORD22 /// SNORD25 /// SNORD26 /// SNORD27 /// SNORD28 /// SNORD29 /// SNORD31 / Fold change vs veh, SNHG1 /// SNORD22 /// SNORD25 /// SNORD26 /// SNORD27 /// SNORD28 /// SNORD29 /// SNORD31 / Fold change (Aza/veh), C12orf56 (ProbeSet 11735607_a_at) / Fold change (ACY-1035/veh), C12orf56 (ProbeSet 11735607_a_at) / Fold change (Aza/veh), FGFR1OP (ProbeSet 11751329_s_at) / Fold change (ACY-1035/veh), FGFR1OP (ProbeSet 11751329_s_at) / Fold change (Aza/veh), VPS36 (ProbeSet 11739960_a_at) / Fold change (ACY-1035/veh), VPS36 (ProbeSet 11739960_a_at) / RFU SYPL1 (11715823_x_at) / Fold change /veh SYPL1 (11715823_x_at) / RFU IGFBP7 (11715501_s_at) / Fold change /veh IGFBP7 (11715501_s_at) / RFU REEP3 (11722064_at) / Fold change /veh REEP3 (11722064_at) / RFU IGLL1 (11728026_x_at) / Fold change /veh IGLL1 (11728026_x_at): dose or concentration left out as unconfirmed", "details": "ProbeSet 11732433_s_at; LIST B"}
{"compound": "Nc1ccc(-c2cccs2)cc1NC(=O)c1ccc2c(c1)cc(C1CC1)n2CCN1CCOCC1", "note": "[ACY-1035]", "values": [{"measurement": "Fold change vs veh, GK", "value": 1.08}]}
